Data as given in EP2818472A1, “Imidazo[4,5-c]pyridine and pyrrolo[3,2-c]pyridine compounds as G-protein-coupled receptor kinase 5 (GRK5) modulators” (Max-Planck-Gesellschaft zur Förderung der Wissenschaften …, priority 2013, dated 2014).

System: beta-TC6 cells
Test: Insulin HTRF assay (relative activity Ar) in beta-TC6 cells
Type: cell-based, mouse
Conditions: Mus musculus, Beta-TC6, 4 h, insulin HTRF, supernatant of beta-TC6 cells, incubation with test compound at 37°C for 2, 3, 4h; read-out: Ar (relative activity)
In short: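 beta-TC6 cells (15k/well, seeded 24 or 48 h) washed, then exposed to compound in induction buffer (0.5% DMSO final) for 2, 3 or 4 h at 37°C.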

Structure (SMILES) | Emax [%]
CC(=O)Nc1ccc(Nc2cc3c(cn2)ncn3Cc2ccccc2)cc1 [Compound 694, N-[4-[(1-benzylimidazo[4,5-c]pyridin-6-yl)amino]phenyl]acetamide] | 50 to 100
c1ccc(Cn2cnc3cnc(Nc4ccc5c(c4)OCO5)cc32)cc1 [Compound 695, N-(1,3-benzodioxol-5-yl)-1-benzyl-imidazo[4,5-c]pyridin-6-amine] | 50 to 100
CS(=O)(=O)c1ccc(Nc2cc3c(cn2)ncn3CC2CC2)cc1 [Compound 696, 1-(cyclopropylmethyl)-N-(4-methylsulfonylphenyl)imidazo[4,5-c]pyridin-6-amine] | 30 to 50
COc1cc(Nc2cc3c(cn2)nc(C)n3C)cc(OC)c1OC [Compound 697, 1,2-dimethyl-N-(3,4,5-trimethoxyphenyl)imidazo[4,5-c]pyridin-6-amine] | 50 to 100
CC(=O)c1cccc(Nc2cc3c(cn2)nc(C)n3C)c1 [Compound 698, 1-[3-[(1,2-dimethylimidazo[4,5-c]pyridin-6-yl)amino]phenyl]ethanone] | 30 to 50
COc1cc(Nc2cc3c(cn2)nc(Cc2ccccc2)n3C)cc(OC)c1OC [Compound 699, 2-benzyl-1-methyl-N-(3,4,5-trimethoxyphenyl)imidazo[4,5-c]pyridin-6-amine] | 50 to 100
CC(=O)Nc1ccc(Nc2cc3c(cn2)nc(Cc2ccccc2)n3C)cc1 [Compound 700, N-[4-[(2-benzyl-1-methyl-imidazo[4,5-c]pyridin-6-yl)amino]phenyl]acetamide] | 50 to 100
COc1cc(Nc2cc3c(cn2)nc(-c2ccccc2)n3C)cc(OC)c1OC [Compound 701, 1-methyl-2-phenyl-N-(3,4,5-trimethoxyphenyl)imidazo[4,5-c]pyridin-6-amine] | 50 to 100
CC(=O)Nc1ccc(Nc2cc3c(cn2)nc(-c2ccccc2)n3C)cc1 [Compound 702, N-[4-[(1-methyl-2-phenyl-imidazo[4,5-c]pyridin-6-yl)amino]phenyl]acetamide] | 50 to 100
COc1ccc(Nc2cc3c(cn2)nc(-c2ccccc2)n3C)c(OC)c1 [Compound 703, N-(2,4-dimethoxyphenyl)-1-methyl-2-phenyl-imidazo[4,5-c]pyridin-6-amine] | 30 to 50
COc1ccc(Nc2cc3c(cn2)nc(-c2ccccc2)n3C)cn1 [Compound 704, N-(6-methoxy-3-pyridyl)-1-methyl-2-phenyl-imidazo[4,5-c]pyridin-6-amine] | 30 to 50
COc1ccc(Nc2cc3c(cn2)nc(-c2ccccc2)n3C)cc1 [Compound 705, N-(4-methoxyphenyl)-1-methyl-2-phenyl-imidazo[4,5-c]pyridin-6-amine] | 30 to 50
Cn1c(-c2ccccc2)nc2cnc(Nc3ccc4c(c3)OCO4)cc21 [Compound 706, N-(1,3-benzodioxol-5-yl)-1-methyl-2-phenyl-imidazo[4,5-c]pyridin-6-amine] | 50 to 100
COc1cc(Nc2cc3c(cn2)nc(-c2ccco2)n3C)cc(OC)c1OC [Compound 707, 2-(2-furyl)-1-methyl-N-(3,4,5-trimethoxyphenyl)imidazo[4,5-c]pyridin-6-amine] | > 100
CC(=O)Nc1ccc(Nc2cc3c(cn2)nc(-c2ccco2)n3C)cc1 [Compound 708, N-[4-[[2-(2-furyl)-1-methyl-imidazo[4,5-c]pyridin-6-yl]amino]phenyl]acetamide] | > 100
Cc1cccc(Nc2cc3c(cn2)nc(-c2ccco2)n3C)c1 [Compound 709, 2-(2-furyl)-1-methyl-N-(m-tolyl)imidazo[4,5-c]pyridin-6-amine] | 50 to 100
Cn1c(-c2ccco2)nc2cnc(Nc3ccccc3Cl)cc21 [Compound 710, N-(2-chlorophenyl)-2-(2-furyl)-1-methyl-imidazo[4,5-c]pyridin-6-amine] | 30 to 50
CN(C)C(=O)c1ccc(Nc2cc3c(cn2)nc(-c2ccco2)n3C)cc1 [Compound 711, 4-[[2-(2-furyl)-1-methyl-imidazo[4,5-c]pyridin-6-yl]amino]-N,N-dimethyl-benzamide] | 50 to 100
